# Columns and labels:
# MDA-MB-231 cells = test: GRO-seq (global nuclear run-on), transcriptional response to JQ1; format: cell-based, Human; conditions: 500 nM JQ1, 6 h vs 0.05% DMSO, FIG. 12K
# Protocol: Cell culture. MDA-MB-231 breast cancer cells (HTB-26 ATCC) and MM.1S multiple myeloma cells were grown at 37° C. and 5% CO2. MDA-MB-231 cells were cultured in Dulbecco's Modified Eagle Medium (Thermo Fisher Sci.) supplemented with 10% fetal bovine serum. MM.1S cells were cultured in RPMI-1640 supplemented with 1% GlutaMAX (Thermo Fisher Sci.) and 10% fetal bovine serum. […] Drosophila S2 cells were cultured in Schneider's Drosophila Medium (Thermo Fisher Sci.) supplemented with 10% fetal bovine serum and 2 mM L-glutamine (Thermo Fisher Sci.), at ambient temperature in ambient CO2.
# Functional perturbation of general enhancer activities. […] To quantify transcription activities in an unbiased manner, GRO-seq read densities were initially normalized using total uniquely-mapped read numbers to remove variations between libraries. To minimize the bias introduced by promoter pausing or gene length, only reads that were aligned within the 2 Kb region 1 Kb downstream from the TSS were selected to calculate the transcription activity. For multi-isoform genes, the transcript with highest read counts within the 2 Kb window was selected to represent the gene's transcription activity. Public datasets analyzed. The data of RNA Pol II ChIP-seq for MDA-MB-231 cells were obtained from European Genome-phenome Archive (www.ebi.ac.uk/ega). […]
# MM.1S cells = conditions: cited from earlier work
smiles,measurement,setting,value
Cc1sc2c(c1C)C(c1ccc(Cl)cc1)=N[C@@H](CC(=O)OC(C)(C)C)c1nnc(C)n1-2 [JQ1],transcriptional response to JQ1 (GRO-seq): genes associated with top 10% vs bottom 10% RNA-decorated enhancers,MDA-MB-231 cells,The same conclusions were reached
same,response of gene expression to JQ1: genes associated with at least one super-enhancer vs only typical enhancers,"MM.1S cells; GRID-seq inferred connectivity within 50 Kb range, same without range, FIG. 14E, F",more responsive
same,response of gene expression to JQ1: genes associated with top 10% vs bottom 10% RNA-decorated enhancers,"MM.1S cells; genes within ±50 Kb of enhancers, FIG. 13E",more responsive

# Source: patent US10984891B2, “Methods for global RNA-chromatin interactome discovery” (The Regents of the University of California, priority 2016, dated 2021)
